# Laboratory results reported in patent publication EP0393104B1, “MEASUREMENT OF PGE 2 (PROSTAGLANDIN E 2) LEVELS IN PATIENTS WITH CHRONIC INFLAMMATORY BOWEL DISEASE” (priority 1987, dated 1989).
# Values joined by “and” are separate entries in the source; they are usually repeats but may differ in a detail not shown here. Identical values can stand only once.
# Tests used:
# PGE2 [1] = assay: Equilibrium in vivo dialysis of rectum with radioimmunoassay of PGE2 (enema trial); parameters: species or system patients; settings: median, enema groups irrespective of SAZ (+/-), SAZ line = no enema, with SAZ maintenance
# Protocol: The study was carried out as a block-randomized, double-blind trial. Before entry, clinical disease activity was assessed, and equilibrium in vivo dialysis of rectum was performed before the assessment of endoscopic and histologic disease activity. […] Primary stratification was done for patients already on maintenance treatment with SAZ. At day 15 the equilibrium in vivo dialysis of rectum was repeated, and clinical, endoscopic, and histologic activities were reassessed. Patients in complete clinical and endoscopic remission discontinued treatment with enemas, whereas the remainder continued therapy for another 14 days. In all cases equilibrium in vivo dialysis of rectum and assessment of disease activity were repeated at day 29. Withdrawal criteria included intolerance to treatment or deterioration (severe disease, C3) requiring systemic glucocorticoids.
# In vivo dialysis of rectum was performed after insertion of a 12-cm-long dialysis bag (volume 4 ml; Visking seamless cellulose tubing 8/32 filled with Rheomacrodex@; Pharmacia, Uppsala, Sweden) containing 10% dextran (mean mol wt 40,000) in saline into the emptied rectum. To obtain equilibrium with the fluid covering the surface of rectal mucosa, the dialysis bag was left for 4 h before its contents were emptied into a test tube, which was stored immediately at -20°C (rectal dialysate) for analysis within 2 wk.
# Prostaglandin E2 was measured as previously described in detail (K. Bukhave, J. Rask-Madsen J, 'Prostaglandin E2 in jejunal fluids and its potential diagnostic value for selecting patients with indomethacin-sensitive diarrhoea', 1981 European Journal of Clinical Investigation, 11:191-7) by a radioimmunologic method validated by gas chromatography-mass spectrometry (K. Bukhave, K Green, J. Rask-Madsen, 'Comparison of radioimmunological determinations with gas chromatography mass spectrometry dosage', 1983 Biomedical Mass Spectrometry, 10:265-8). The method included purification by extraction with ethylacetate/cyclo- hexane (1:1) and chromatography on microcolumns of Sephadex LH-20 (Pharmacia AB, Sweden) before performing the radioimmunoassay itself on the eluate fraction containing PGE2.
# PGE2 [2] = assay: Equilibrium in vivo dialysis of faeces with radioimmunoassay of PGE2 (SAZ withdrawal study); settings: individual patients randomized to SAZ (tablets 0.5 g; 2 tablets b.i.d.) after raised PGE2; first figure of the cell
# Description: (§1) Equilibrium in vivo dialysis of faeces as well as equilibrium in vivo dialysis of rectum were done in consenting patients fulfilling the entry criteria. Subsequently, SAZ treatment was stopped and the patients were observed free of medication. Evaluation of clinical disease activity, in addition to sigmoidoscopy with rectal biopsies for assessing endoscopic and histologic disease activity, were done at scheduled visits after two weeks, after two, six, and 12 months, and in-between, if indicated by recurrence of colitic symptoms. A relapse was defined as a recurrence of colitic symptoms accompanied by endoscopic signs of inflammation. If a relapse occurred the patient was withdrawn. At the scheduled visits also in vivo dialysis measurements were carried out. […]
# Equilibrium in vivo dialysis of faeces was carried out as previously described, by pooling the contents of five swallowed dialysis bags following their intestinal transit (faecal dialysate). These dialysates were analyzed for concentrations of PGE2 (faecal PGE2).
# (§2) Prostaglandin E2 was measured as previously described by a radioimmunological method validated by gas chromatograghy mass spectrometry. […]
# ulcerative colitis = settings: background statement; cited from earlier work
# PGE2 [3] = assay: Equilibrium in vivo dialysis of rectum with radioimmunoassay of PGE2 (SAZ withdrawal study); parameters: species or system patients
# Description: as §1
# Equilibrium in vivo dialysis of rectum was performed after insertion of a 12-cm-long dialysis bag into the emptied rectum as described above. The bag was left for four hours when it was removed and its contents (rectal dialysate) were analyzed for concentrations of PGE2 (rectal PGE2).
# as §2
# [4] = tested on: inactive ulcerative colitis; assay: Double-blind maintenance treatment with SAZ or placebo after rise of PGE2: relapse/remission; format: in vivo, patients
# Description: Patients fulfilling the following entry criteria were candidates for the study: (a) proven UC. […] Patients were considered in remission when symptom-free (i.e., stool frequency 2 x a day, without discharge of blood, pus, or mucus from the rectum), with normal sigmoidoscopic appearance, and with no significant inflammation on rectal biopsy.
# as §1
structure (smiles),measurement,setting,value
"O=C(O)c1cc(/N=N/c2ccc(S(=O)(=O)Nc3ccccn3)cc2)ccc1O [SAZ, sulphasalazine]",Concentrations of PGE2 in rectal lumen,PGE2 [1]; clinical activity 0 (inactive),0.61(n=3) (0.47-2.2) ng/ml
same,Concentrations of PGE2 in rectal lumen,PGE2 [1]; clinical activity 1 (mild),9.4(n=5) (0.35-36) ng/ml
same,Concentrations of PGE2 in rectal lumen,PGE2 [1]; clinical activity 2-3 (moderate-severe),8.5(n=9) (0.32-52) ng/ml
same,Concentrations of PGE2 in rectal lumen,PGE2 [1]; endoscopic activity 0 (inactive),0.61(n=3) (0.47-22) ng/ml
same,Concentrations of PGE2 in rectal lumen,PGE2 [1]; endoscopic activity 1 (mild),3.2(n=3) (0.35-5.6) ng/ml
same,Concentrations of PGE2 in rectal lumen,PGE2 [1]; endoscopic activity 2 (moderate),8.2(n=8) (0.32-36) ng/ml
same,Concentrations of PGE2 in rectal lumen,PGE2 [1]; endoscopic activity 3 (severe),36(n=3) (8.9-52) ng/ml
same,Fecal PGE2 levels 6 months after R,PGE2 [2],0.20 ng/ml and 0.38 ng/ml and 0.43 ng/ml and 0.14/ND ng/ml and 0.32 ng/ml and 0.22 ng/ml
same,patients allergic to SAZ or in other ways intolerant of the drug,ulcerative colitis,10-20%
same,PGE2 concentrations,"PGE2 [3]; SAZ group n=6, six months after randomisation",decreased toward control levels
same,Rectal PGE2 levels 6 months after R,"PGE2 [3]; individual patients randomized to SAZ (tablets 0.5 g; 2 tablets b.i.d.) after raised PGE2, second figure of the cell",0.64 ng/mL and 0.59 ng/mL and 2.11 ng/mL and 0.30 ng/mL and 0.26 ng/mL
same,remission reinstated in relapsing patients by resuming SAZ alone,"[4]; SAZ 2-3 g/day orally, 14 relapsing patients",seven cases
same,relapse within the six-month treatment period,"[4]; SAZ 2 g/day group n=6, placebo four of five, p<0.05, Fisher's exact test",none of the six patients
